What was measured:
[1] = cited from earlier work; for interconversion on heating (desolvation experiments): Form E: about 125° C. for about five minutes, Form B: 175° C. for about five minutes; for interconversion of polymorphic form: solvent system or relative humidity as stated; for hygroscopicity: crystalline polymorphic form
subjects = test: Pittsburgh Sleep Quality Index study (PSQI, daily sleep diary); assay type: in vivo, human; conditions: 10 mg/day orally, 12 week study, twelve subjects
Description: Twelve subjects were treated with 10 mg/day of 3-(4-amino-1-oxo-1,3-dihydro-isoindol-2-yl)-piperidine-2,6-dione orally for 12 weeks. Subjects were seen every 2 weeks until study completion. Subjects were asked to keep a daily sleep diary asking how much interference with sleep (0-10 scale) was experienced. Patients were also asked to complete the Pittsburgh Sleep Quality Inventory (PSQI) at the start of the treatment and ever 4 weeks thereafter, Buysse, DJ et al., Journal of Psychiatric Research, 28 (2), 193-213, 1989.

SMILES | interconversion on heating (desolvation experiments) [1] | interconversion of polymorphic form [1] | hygroscopicity [1] | also measured
Nc1cccc2c1CN(C1CCC(=O)NC1=O)C2=O (stereo not shown) [Form E, 3-(4-amino-1-oxo-1,3 dihydro-isoindol-2-yl)-piperidene-2,6-dione] | can convert to Form B | can convert to Form C in an acetone solvent system and to Form G in a THF solvent system | – | –
Nc1cccc2c1CN(C1CCC(=O)NC1=O)C2=O (stereo not shown) [3-(4-amino-1-oxo-1,3-dihydro-isoindol-2-yl)-piperidine-2,6-dione] | – | – | – | need for sleep medications (subjects): significantly improved; overall sleep quality (subjects): significantly improved; presence of daytime sleepiness (subjects): significantly improved
Nc1cccc2c1CN(C1CCC(=O)NC1=O)C2=O (stereo not shown) [Form A, 3-(4-amino-1-oxo-1,3 dihydro-isoindol-2-yl)-piperidene-2,6-dione] | – | – | weakly or not hygroscopic | relative stability of polymorph ([1]; Form A: among anhydrous polymorphs, Form E: in aqueous solvent systems): most thermodynamically stable anhydrous polymorph
Nc1cccc2c1CN(C1CCC(=O)NC1=O)C2=O (stereo not shown) [Form B, 3-(4-amino-1-oxo-1,3 dihydro-isoindol-2-yl)-piperidene-2,6-dione] | can convert to Form F | converts to Form E in aqueous solvent systems | – | –
Nc1cccc2c1CN(C1CCC(=O)NC1=O)C2=O (stereo not shown) [Form C, 3-(4-amino-1-oxo-1,3 dihydro-isoindol-2-yl)-piperidene-2,6-dione] | – | can convert to Form B at higher relative humidities | not hygroscopic below about 85% RH | –
Nc1cccc2c1CN(C1CCC(=O)NC1=O)C2=O (stereo not shown) [Form D, 3-(4-amino-1-oxo-1,3 dihydro-isoindol-2-yl)-piperidene-2,6-dione] | – | will typically convert to Form B when stressed at higher relative humidities | either weakly or not hygroscopic | –

Source: patent US20050222209A1, “Methods and compositions for the treatment, prevention or management of dysfunctional sleep and dysfunctional sleep associated with disease” (priority 2004, published 2005)
